Measured values: ChEMBL document CHEMBL3297716, “Rhapontigenin suppresses cell migration and invasion by inhibiting the PI3K-dependent Rac1 signaling pathway in MDA-MB-231 human breast cancer cells” (J Nat Prod, 2014)
Activity calls are given as the source filed them. No cut-off for these calls is given here.

Tests used:
[1] = organism: Homo sapiens; experiment: Inhibition of PI3K-dependent Rac1 activation in human MDA-MB-231 cells assessed as suppression of serum-induced cell migration at 50 uM after 24 hrs by wound-healing assay relative to control; assay type: cell-based
[2] = tested on: MDA-MB-231; experiment: Inhibition of PI3K phosphorylation in human MDA-MB-231 cells at 10 to 50 uM after 24 hrs by Western blot analysis; assay type: cell-based
[3] = tested on: MDA-MB-231; experiment: Inhibition of PI3K in human MDA-MB-231 cells assessed as downregulation of activated Rac1-GTP protein expression at 50 uM after 30 mins by Western blot analysis; assay type: cell-based
[4] = tested on: MDA-MB-231; experiment: Inhibition of PI3K-dependent Rac1 activation in human MDA-MB-231 cells at 10 uM after 30 mins by ELISA relative to untreated control; assay type: cell-based
[5] = tested on: MDA-MB-231; experiment: Cytotoxicity against human MDA-MB-231 cells assessed as cell viability up to 50 uM after 24 hrs by MTT assay; assay type: cell-based; settings: mda-mb-231, 24 h
[6] = tested on: MDA-MB-231; experiment: Inhibition of PI3K-dependent Rac1 activation in human MDA-MB-231 cells at 50 uM after 30 mins by ELISA relative to untreated control; assay type: cell-based
[7] = tested on: MDA-MB-231; experiment: (§1) Inhibition of PI3K-dependent Rac1 activation in human MDA-MB-231 cells assessed as suppression of serum-induced cell invasion into matrigel at 10 uM preincubated for 30 mins with cells followed by loading into upper well of matrigel coated filter measured after 15 hrs by Boyden chamber analysis relative to control; assay type: cell-based
[8] = tested on: MDA-MB-231; experiment: Effect on total PAK1 protein level in human MDA-MB-231 cells at 10 to 50 uM after 24 hrs by Western blot analysis; assay type: functional, cell-based
[9] = tested on: MDA-MB-231; experiment: Effect on total PI3K protein level in human MDA-MB-231 cells at 10 to 50 uM after 24 hrs by Western blot analysis; assay type: functional, cell-based
[10] = tested on: MDA-MB-231; experiment: Inhibition of PI3K-dependent Rac1 activation in human MDA-MB-231 cells assessed as downregulation of Arp-2 protein expression at 10 to 50 uM after 24 hrs by Western blot analysis; assay type: cell-based
[11] = tested on: MDA-MB-231; experiment: Inhibition of PI3K-dependent Rac1 activation in human MDA-MB-231 cells at 25 uM after 30 mins by ELISA relative to untreated control; assay type: cell-based
[12] = tested on: MDA-MB-231; experiment: Effect on total LIMK1/2 protein level in human MDA-MB-231 cells at 10 to 50 uM after 24 hrs by Western blot analysis; assay type: functional, cell-based
[13] = tested on: MDA-MB-231; experiment: Inhibition of PI3K-dependent Rac1 activation in human MDA-MB-231 cells assessed as inhibition of cofilin phosphorylation at 10 to 50 uM after 24 hrs by Western blot analysis; assay type: cell-based
[14] = tested on: MDA-MB-231; experiment: Effect on total AKT protein level in human MDA-MB-231 cells at 10 to 50 uM after 24 hrs by Western blot analysis; assay type: functional, cell-based
[15] = tested on: MDA-MB-231; experiment: Inhibition of PI3K-dependent Rac1 activation in human MDA-MB-231 cells assessed as inhibition of LIMK1/2 phosphorylation at 10 to 50 uM after 24 hrs by Western blot analysis; assay type: cell-based
[16] = organism: Homo sapiens; experiment: Inhibition of PI3K-dependent Rac1 activation in human MDA-MB-231 cells assessed as suppression of serum-induced cell migration at 25 uM after 24 hrs by wound-healing assay relative to control; assay type: cell-based
[17] = tested on: MDA-MB-231; experiment: Inhibition of PI3K-dependent Rac1 activation in human MDA-MB-231 cells assessed as downregulation of Arp-3 protein expression at 10 to 50 uM after 24 hrs by Western blot analysis; assay type: cell-based
[18] = organism: Homo sapiens; experiment: Inhibition of PI3K-dependent Rac1 activation in human MDA-MB-231 cells assessed as suppression of serum-induced cell migration at 10 uM after 24 hrs by wound-healing assay relative to control; assay type: cell-based
[19] = tested on: MDA-MB-231; experiment: Effect on total Rac1 protein expression in human MDA-MB-231 cells after 30 mins by Western blot analysis; assay type: functional, cell-based
[20] = tested on: MDA-MB-231; experiment: Inhibition of PI3K-dependent Rac1 activation in human MDA-MB-231 cells assessed as inhibition of PAK1 phosphorylation at 10 to 50 uM after 24 hrs by Western blot analysis; assay type: cell-based
[21] = tested on: MDA-MB-231; experiment: as §1, with “25” for “10”; assay type: cell-based
[22] = tested on: MDA-MB-231; experiment: Inhibition of PI3K-dependent Rac1 activation in human MDA-MB-231 cells assessed as downregulation of WAVE-2 protein expression at 10 to 50 uM after 24 hrs by Western blot analysis; assay type: cell-based
[23] = tested on: MDA-MB-231; experiment: Inhibition of PI3K-dependent Rac1 activation in human MDA-MB-231 cells assessed as inhibition of lamellipodia formation at 50 uM after 24 hrs by rhodamine phalloidin/DAPI staining-based confocal microscopic analysis; assay type: cell-based
[24] = tested on: MDA-MB-231; experiment: as §1, with “50” for “10”; assay type: cell-based
[25] = tested on: MDA-MB-231; experiment: Inhibition of PI3K in human MDA-MB-231 cells assessed as inhibition of AKT phosphorylation at 10 to 50 uM after 24 hrs by Western blot analysis; assay type: cell-based
[26] = tested on: MDA-MB-231; experiment: Cytotoxicity against human MDA-MB-231 cells assessed as cell viability at 100 to 200 uM after 24 hrs by MTT assay; assay type: cell-based; settings: mda-mb-231, 24 h
[27] = tested on: MDA-MB-231; experiment: Effect on total cofilin protein level in human MDA-MB-231 cells at 10 to 50 uM after 24 hrs by Western blot analysis; assay type: functional, cell-based
[28] = tested on: MDA-MB-231; experiment: Effect on total AKT protein level in human MDA-MB-231 cells at 1 to 10 uM after 24 hrs by Western blot analysis; assay type: functional, cell-based
[29] = tested on: MDA-MB-231; experiment: Inhibition of PI3K in human MDA-MB-231 cells assessed as inhibition of AKT phosphorylation at 1 to 10 uM after 24 hrs by Western blot analysis; assay type: cell-based

`COc1ccc(/C=C/c2cc(O)cc(O)c2)cc1O` was tested, and the inhibition [1] was 70%, the inhibition [2] was “Active” and the inhibition [3] was “Active”. For the same compound, the inhibition [4] was 17%, the Activity [5] was “Non-toxic” and the inhibition [6] was 44%. For the same compound, the inhibition [7] was 26%, the Activity [8] was “inactive” and the Activity [9] was “inactive”. For the same compound, the inhibition [10] was “Active”, the inhibition [11] was 25% and the Activity [12] was “inactive”. The inhibition [13] was “Active”, the Activity [14] was “inactive” and the inhibition [15] was “Active”. For the same compound, the inhibition [16] was 44%, the inhibition [17] was “Active” and the inhibition [18] was 25%. The Activity [19] was “inactive”, the inhibition [20] was “Active” and the inhibition [21] was 50%. The inhibition [22] was “Active”, the inhibition [23] was “Active” and the inhibition [24] was 68%. The inhibition [25] was “Active”, the Activity [26] was “Toxic” and the Activity [27] was “inactive”.

`COC[C@H]1OC(=O)c2coc3c2[C@@]1(C)C1=C(C3=O)[C@@H]2CCC(=O)[C@@]2(C)C[C@H]1OC(C)=O` was tested, and the Activity [28] was “inactive” and the inhibition [29] was “Active”.
